Patent US20230365585A1, “BENZODIAZEPINE DERIVATIVES USEFUL IN TREATING A RESPIRATORY SYNCYTIAL VIRUS INFECTION” (priority 2020, published 2023)

Tests used:
RSV A2 = assay: RSV plaque reduction assay; format: cell-based, RSV (RSV A2 ECACC, 0709161v); settings: human respiratory syncytial virus, HepG2, 48 h, Hep-G2 cells, RSV A2, 2 days; mean of at least two experiments
Protocol: Compounds were subjected to RSV plaque reduction assays according to the following protocol.
Hep-G2 cells (ECACC, 85011430) were passaged in flasks and seeded in 24-well plates in DMEM containing antibiotics and supplemented with 10% FBS. During inoculation and subsequent incubation, cells were cultured in DMEM containing 2% FBS. 100 plaque forming unit/well of RSV (RSV A2 ECACC, 0709161v) was mixed with eight serial dilutions of compound. Subsequently, 100 µL of the virus/compound mixtures was added to confluent Hep-G2 cell monolayers. The cells and virus/compound mixtures were incubated at 37° C. in a humidified 5% CO2 incubator for 2 h prior to removal of the inoculum and addition of 1 mL of overlay (DMEM containing 2% FBS and 0.8% CMC) containing compound dilutions. The cells and were incubated at 37° C. in a humidified 5% CO2 incubator for 2 days.
Cells were washed with PBS before adding 75%/25% v/v EtOH/MeOH, for 3 min. Fix ative was removed and plates were washed with PBS. A pre-titrated amount of the primary antibody was added in 200 µL PBS/2% milk powder, and plates incubated for 90 min at 37° C. The plates were washed 3 times with PBS/0.05% Tween20 before addition of rabbit anti-goat horse radish peroxidase in 200 µL PBS/2% milk powder, and incubated for 1 h at 37° C. Following three wash steps with PBS/0.05% Tween20, 200 µL ready-to-use TrueBlue was added and plates were incubated at rt for 10-15 min before washing with water. After removal of water, plates were air-dried in the dark.
(§1) Plates were scanned and analysed using the Immunospot S6 Macro analyser, which is equipped with BioSpot analysis software for counting immunostained plaques (virospots). Plaque counts were used to calculate % infection relative to the mean of the plaque count in the virus control wells for RSV. […] Plaque EC50 and cell toxicity CC50 values are a mean of at least two experiments and figures are rounded to whole units.

Cell cytotoxicity CC50 = format: cell-based; settings: human; mean of at least two experiments
Description: as §1

Structure (SMILES) | EC50 (RSV A2) [nM] | CC50 (Cell cytotoxicity CC50) [nM]
CC(C)Nc1ccc(-c2nn3c(c2C(=O)N[C@H]2N=C(c4ccccc4)c4cccc(F)c4NC2=O)O[C@H]2CC[C@@H]3C2)cn1 (single isomer, unassigned) [Example 31-2, (1R*,8S*)-N-[(3S)-9-fluoro-2-oxo-5-phenyl-2,3-dihydro-1H-1,4-benzodiazepin-3-yl]-4-{6-[(propan-2-yl)amino]pyridin-3-yl}-7-oxa-2,3-diazatricyclo[6.2.1.02,6]undeca-3,5-diene-5-carboxamide] | 94 | > 25000
O=C(NC1N=C(c2ccccc2)c2cccc(F)c2NC1=O)c1c(-c2ccccc2F)nn2c1OCC(N1CCOCC1)CC2 (stereo in doubt) [Example 29, 2-(2-Fluorophenyl)-6-morpholin-4-yl-N-[(3R)-9-fluoro-2-oxo-5-phenyl-1,3-dihydro-1,4-benzodiazepin-3-yl]-5,6,7,8-tetrahydropyrazolo[5,1-b][1,3]oxazepine-3-carboxamide] | 154 | > 25000
O=C(N[C@H]1N=C(c2ccccc2)c2ccccc2NC1=O)c1c(-c2ccccc2)nn2c1OCCCC2 [Example 1, N-[(3S)-2-oxo-5-phenyl-1,3-dihydro-1,4-benzodiazepin-3-yl]-2-phenyl-5,6,7,8-tetrahydropyrazolo[5,1-b][1,3]oxazepine-3-carboxamide] | 79 | > 25000
Cc1cncc(-c2nn3c(c2C(=O)N[C@H]2N=C(c4ccccc4)c4ccccc4NC2=O)OCCCC3)c1 [Example 3, 2-(5-Methylpyridin-3-yl)-N-[(3S)-2-oxo-5-phenyl-1,3-dihydro-1,4-benzodiazepin-3-yl]-5,6,7,8-tetrahydropyrazolo[5,1-b][1,3]oxazepine-3-carboxamide] | 256 | > 25000
Cc1cncc(-c2nn3c(c2C(=O)N[C@H]2N=C(c4ccccc4)c4cccc(F)c4NC2=O)OCCCC3)c1 [Example 4, N-[(3S)-9-Fluoro-2-oxo-5-phenyl-1,3-dihydro-1,4-benzodiazepin-3-yl]-2-(5-methylpyridin-3-yl)-5,6,7,8-tetrahydropyrazolo[5,1-b][1,3]oxazepine-3-carboxamide] | 219 | > 25000
CC1(C)CCCn2nc(-c3ccccc3F)c(C(=O)N[C@H]3N=C(c4ccccc4)c4ccccc4NC3=O)c2O1 [Example 5, 2-(2-Fluorophenyl)-5,5-dimethyl-N-[(3S)-2-oxo-5-phenyl-1,3-dihydro-1,4-benzodiazepin-3-yl]-7,8-dihydro-6H-pyrazolo[5,1-b][1,3]oxazepine-3-carboxamide] | 91 | > 25000
CC1(C)CCCn2nc(-c3ccccc3F)c(C(=O)N[C@H]3N=C(c4ccccc4)c4cccc(F)c4NC3=O)c2O1 [Example 6, N-[(3S)-9-Fluoro-2-oxo-5-phenyl-1,3-dihydro-1,4-benzodiazepin-3-yl]-2-(2-fluorophenyl)-5,5-dimethyl-7,8-dihydro-6H-pyrazolo[5,1-b][1,3]oxazepine-3-carboxamide] | 78 | > 25000
O=C(N[C@H]1N=C(c2ccccc2)c2ccccc2NC1=O)c1c(-c2ccccc2F)nn2c1OCCCC2 [Example 7, 2-(2-Fluorophenyl)-N-[(3S)-2-oxo-5-phenyl-1,3-dihydro-1,4-benzodiazepin-3-yl]-5,6,7,8-tetrahydropyrazolo[5,1-b][1,3]oxazepine-3-carboxamide] | 52 | > 25000
O=C(N[C@H]1N=C(c2ccccc2)c2cccc(F)c2NC1=O)c1c(-c2ccccc2)nn2c1OCCCC2 [Example 8, N-[(3S)-9-Fluoro-2-oxo-5-phenyl-1,3-dihydro-1,4-benzodiazepin-3-yl]-2-phenyl-5,6,7,8-tetrahydropyrazolo[5,1-b][1,3]oxazepine-3-carboxamide] | 59 | > 16700
O=C(N[C@H]1N=C(c2ccccc2)c2ccccc2NC1=O)c1c(-c2ccc(NC3CC3)nc2F)nn2c1OCCCC2 [Example 9, 2-[6-(Cyclopropylamino)-2-fluoropyridin-3-yl]-N-[(3S)-2-oxo-5-phenyl-1,3-dihydro-1,4-benzodiazepin-3-yl]-5,6,7,8-tetrahydropyrazolo[5,1-b][1,3]oxazepine-3-carboxamide] | 24 | > 25000
CCNc1ccc(-c2nn3c(c2C(=O)N[C@H]2N=C(c4ccccc4)c4ccccc4NC2=O)OC(C)CCC3)c(F)n1 (stereo partly drawn) [Example 10, 2-[6-(Ethylamino)-2-fluoropyridin-3-yl]-5-methyl-N-[(3S)-2-oxo-5-phenyl-1,3-dihydro-1,4-benzodiazepin-3-yl]-5,6,7,8-tetrahydropyrazolo[5,1-b][1,3]oxazepine-3-carboxamide] | 31 | > 25000
CCNc1ccc(-c2nn3c(c2C(=O)N[C@H]2N=C(c4ccccc4)c4cccc(F)c4NC2=O)OC(C)CCC3)c(F)n1 (stereo partly drawn) [Example 11, 2-[6-(Ethylamino)-2-fluoropyridin-3-yl]-N-[(3S)-9-fluoro-2-oxo-5-phenyl-1,3-dihydro-1,4-benzodiazepin-3-yl]-5-methyl-5,6,7,8-tetrahydropyrazolo[5,1-b][1,3]oxazepine-3-carboxamide] | 18 | > 25000
CC(C)Nc1ccc(-c2nn3c(c2C(=O)N[C@H]2N=C(c4ccccc4)c4ccccc4NC2=O)OC(C)CCC3)c(F)n1 (stereo partly drawn) [Example 12, 2-[2-Fluoro-6-(propan-2-ylamino)pyridin-3-yl]-5-methyl-N-[(3S)-2-oxo-5-phenyl-1,3-dihydro-1,4-benzodiazepin-3-yl]-5,6,7,8-tetrahydropyrazolo[5,1-b][1,3]oxazepine-3-carboxamide] | 34 | > 25000
CC(C)Nc1ccc(-c2nn3c(c2C(=O)N[C@H]2N=C(c4ccccc4)c4cccc(F)c4NC2=O)OC(C)CCC3)c(F)n1 (stereo partly drawn) [Example 13, N-[(3S)-9-fluoro-2-oxo-5-phenyl-1,3-dihydro-1,4-benzodiazepin-3-yl]-2-[2-fluoro-6-(propan-2-ylamino)pyridin-3-yl]-5-methyl-5,6,7,8-tetrahydropyrazolo[5,1-b][1,3]oxazepine-3-carboxamide] | 34 | > 25000
CC1CCCOc2c(C(=O)N[C@H]3N=C(c4ccccc4)c4ccccc4NC3=O)c(-c3ccccc3F)nn21 (stereo partly drawn) [Example 14, 2-(2-Fluorophenyl)-8-methyl-N-[(3S)-2-oxo-5-phenyl-1,3-dihydro-1,4-benzodiazepin-3-yl]-5,6,7,8-tetrahydropyrazolo[5,1-b][1,3]oxazepine-3-carboxamide] | 67 | > 25000
CC1CCCOc2c(C(=O)N[C@H]3N=C(c4ccccc4)c4cccc(F)c4NC3=O)c(-c3ccccc3F)nn21 (stereo partly drawn) [Example 15, N-[(3S)-9-fluoro-2-oxo-5-phenyl-1,3-dihydro-1,4-benzodiazepin-3-yl]-2-(2-fluorophenyl)-8-methyl-5,6,7,8-tetrahydropyrazolo[5,1-b][1,3]oxazepine-3-carboxamide] | 64 | > 25000
CC1CCCn2nc(-c3ccc(F)cc3F)c(C(=O)N[C@H]3N=C(c4ccccc4)c4cccc(F)c4NC3=O)c2O1 (stereo partly drawn) [Example 17, 2-(2,4-Difluorophenyl)-N-[(3S)-9-fluoro-2-oxo-5-phenyl-1,3-dihydro-1,4-benzodiazepin-3-yl]-5-methyl-5,6,7,8-tetrahydropyrazolo[5,1-b][1,3]oxazepine-3-carboxamide] | 27 | > 25000
